From patent US5663331A, “Cephalosporin compounds” (Il-Dong Pharm. Co., Ltd., priority 1992, dated 1997)
≈ marks a conversion by molar mass, not a printed value.

Legend:
Assay type in all cases: cell-based
[1] = tested on: Staphylococcus aureus ATCC 65389; assay: MIC, two-fold dilution method, Staphylococcus aureus ATCC 65389; settings: 10^6 CFU per ml, 37° C., 18 to 20 hours; for MIC: ATCC65389, Muller Hinton Broth, read-out: Antibacterial Activity (MIC); for Antibacterial Activity (MIC): Muller Hinton Broth
Procedure: (§1) In order to illustrate the usefulness of the invented compounds, the minimal inhibitory concentrations-(MIC) thereof against standard strains were determined and compared with Cefotaxime, a known compound. Also, the in vitro antibacterial activity was determined by a two-fold dilution method as described below: That is, the two-fold serial dilutions of the compound were made and dispersed in Muller Hinton Broth medium. Standard test strain which had the 10^6 CFU per ml was inoculated on the medium, and was incubated at 37° C. for 18 to 20 hours.

[2] = tested on: Bacillus subtilis ATCC 6633; assay: MIC, two-fold dilution method, Bacillus subtilis ATCC 6633; settings: 10^6 CFU per ml, 37° C., 18 to 20 hours; for MIC: ATCC6633, Muller Hinton Broth, read-out: Antibacterial Activity (MIC); for Antibacterial Activity (MIC): Muller Hinton Broth
Procedure: as §1

[3] = tested on: Esherichia coli ATCC 25922; assay: MIC, two-fold dilution method, Esherichia coli ATCC 25922; settings: Muller Hinton Broth, 10^6 CFU per ml, 37° C., 18 to 20 hours; for MIC: read-out: Antibacterial Activity (MIC)
Procedure: as §1

[4] = tested on: Klebsiella pneumoniae ATCC 10031; assay: MIC, two-fold dilution method, Klebsiella pneumoniae ATCC 10031; settings: 10^6 CFU per ml, 37° C., 18 to 20 hours; for MIC: ATCC10031, Muller Hinton Broth, read-out: Antibacterial Activity (MIC); for Antibacterial Activity (MIC): Muller Hinton Broth
Procedure: as §1

[5] = tested on: Streptococcus faecalis ATCC 10541; assay: MIC, two-fold dilution method, Streptococcus faecalis ATCC 10541; settings: 10^6 CFU per ml, 37° C., 18 to 20 hours; for MIC: Enterococcus faecalis, ATCC10541, Muller Hinton Broth, read-out: Antibacterial Activity (MIC); for Antibacterial Activity (MIC): Muller Hinton Broth
Procedure: as §1

[6] = tested on: Staphylococcus epidermidis ATCC 12228; assay: MIC, two-fold dilution method, Staphylococcus epidermidis ATCC 12228; settings: 10^6 CFU per ml, 37° C., 18 to 20 hours; for MIC: ATCC12228, Muller Hinton Broth, read-out: Antibacterial Activity (MIC); for Antibacterial Activity (MIC): Muller Hinton Broth
Procedure: as §1

[7] = tested on: Pseudomonas aeurginosa NCTC 10490; assay: MIC, two-fold dilution method, Pseudomonas aeurginosa NCTC 10490; settings: 10^6 CFU per ml, 37° C., 18 to 20 hours; for MIC: NCTC10490, Muller Hinton Broth, read-out: Antibacterial Activity (MIC); for Antibacterial Activity (MIC): Muller Hinton Broth
Procedure: as §1

CO/N=C(\C(=O)NC1C(=O)N2C(C(=O)[O-])=C(CSc3cc[n+](C4CC4)c4cc(N5CCN(C)CC5)c(F)cc34)CSC12)c1csc(N)n1 (centres unmarked) [Compound I-6, 7-[(Z)-2-(2-aminothiazol-4-yl)-2-(methoxyimino)acetamido]-3-[1-cyclopropyl-6-fluoro-7-(N-methylpiperazinyl)quinolinium-4-yl]thiomethyl-3-cephem-4-carboxylate]
MIC [1]: 0.39 mg/L (≈ 0.547 µM) | MIC [2]: 0.39 mg/L (≈ 0.547 µM) | MIC [3]: 12.5 mg/L (≈ 17.5 µM) | MIC [4]: 0.1 mg/L (≈ 0.14 µM) | MIC [5]: 0.2 mg/L (≈ 0.281 µM) | MIC [6]: 0.39 mg/L (≈ 0.547 µM) | MIC [7]: 1.56 mg/L (≈ 2.19 µM)

CCN1CCN(c2cc3c(cc2F)c(SCC2=C(C(=O)[O-])N4C(=O)C(NC(=O)/C(=N\OC)c5csc(N)n5)C4SC2)cc[n+]3C2CC2)CC1 (centres unmarked) [Compound I-7, 7-[(Z)-2-(2-aminothiazol-4-yl)-2-(methoxyimino)acetamido]-3-3-[1-cyclopropyl-6-fluoro-7-(1-ethylpiperazinyl)quinolinium-4-yl]-thiomethyl-3-cephem-4-carboxylate]
MIC [1]: 0.39 mg/L (≈ 0.537 µM) | MIC [2]: 0.2 mg/L (≈ 0.275 µM) | MIC [3]: 0.78 mg/L (≈ 1.07 µM) | MIC [4]: 0.05 mg/L (≈ 0.0688 µM) | MIC [5]: 0.05 mg/L (≈ 0.0688 µM) | MIC [6]: 0.2 mg/L (≈ 0.275 µM) | MIC [7]: 0.39 mg/L (≈ 0.537 µM)

CO/N=C(\C(=O)NC1C(=O)N2C(C(=O)[O-])=C(CSc3cc[n+](C4CC4)c4cc(N5CCNCC5C)c(F)cc34)CS[C@H]12)c1csc(N)n1 (some centres unmarked) [Compound I-8, 7-[(Z)-2-(2-aminothiazol-4-yl)-2-(methoxyimino)acetamido]-3-[1-cyclopropyl-6-fluoro-7-(2-methylpiperazinyl)quinolinium-4-yl]thiomethyl-3-cephem-4-carboxylate]
Antibacterial Activity (MIC) [1]: 0.39 mg/L | Antibacterial Activity (MIC) [2]: 0.2 mg/L | Antibacterial Activity (MIC) [3]: 0.78 mg/L | Antibacterial Activity (MIC) [4]: 0.05 mg/L | Antibacterial Activity (MIC) [5]: 0.2 mg/L | Antibacterial Activity (MIC) [6]: 0.2 mg/L | Antibacterial Activity (MIC) [7]: 0.39 mg/L

CC[n+]1ccc(SCC2=C(C(=O)[O-])N3C(=O)C(NC(=O)/C(=N\OC)c4csc(N)n4)C3SC2)c2cc(F)c(N3CCNCC3)cc21 (centres unmarked) [Compound I-9, 7-[(Z)-2-(2-aminothiazol-4-yl)-2-(methoxyimino)acetamido]-3-(1-ethyl-6-fluoro-7-piperazinylquinolinum-4-yl)thiomethyl-3-cephem-4-carboxylate]
MIC [1]: 0.2 mg/L (≈ 0.291 µM) | MIC [2]: 0.1 mg/L (≈ 0.146 µM) | MIC [3]: 1.56 mg/L (≈ 2.27 µM) | MIC [4]: 0.78 mg/L (≈ 1.14 µM) | MIC [5]: 0.1 mg/L (≈ 0.146 µM) | MIC [6]: 0.2 mg/L (≈ 0.291 µM) | MIC [7]: 3.13 mg/L (≈ 4.56 µM)

CC[n+]1ccc(SCC2=C(C(=O)[O-])N3C(=O)C(NC(=O)/C(=N\OC)c4csc(N)n4)C3SC2)c2cc(F)c(N3CCN(C)CC3)cc21 (centres unmarked) [Compound I-10, 7-[(Z)-2-(2-aminothiazol-4-yl)-2-(methoxyimino)acetamido]-3-(1-ethyl-6-fluoro-7-(N-methylpiperazinyl)quinolinium-4-yl]thiomethyl-3-cephem-4-carboxylate]
MIC [1]: 0.39 mg/L (≈ 0.556 µM) | MIC [2]: 0.39 mg/L (≈ 0.556 µM) | MIC [3]: 12.5 mg/L (≈ 17.8 µM) | MIC [4]: 0.78 mg/L (≈ 1.11 µM) | MIC [5]: 1.56 mg/L (≈ 2.23 µM) | MIC [6]: 1.56 mg/L (≈ 2.23 µM) | MIC [7]: 6.25 mg/L (≈ 8.92 µM)

CCN1CCN(c2cc3c(cc2F)c(SCC2=C(C(=O)[O-])N4C(=O)C(NC(=O)/C(=N\OC)c5csc(N)n5)C4SC2)cc[n+]3CC)CC1 (centres unmarked) [Compound I-11, 7-[(Z)-2-(2-aminothiazol-4-yl)-2-(methoxyimino)acetamido]-3-[1-ethyl-6-fluoro-7-(1-ethylpiperazinyl)quinolinium-4-yl]thiomethyl-3-cephem-4-carboxylat]
MIC [1]: 0.1 mg/L (≈ 0.14 µM) | MIC [2]: 0.1 mg/L (≈ 0.14 µM) | MIC [3]: 1.56 mg/L (≈ 2.18 µM) | MIC [4]: 0.39 mg/L (≈ 0.546 µM) | MIC [5]: 0.05 mg/L (≈ 0.0699 µM) | MIC [6]: 0.2 mg/L (≈ 0.28 µM) | MIC [7]: 1.56 mg/L (≈ 2.18 µM)

CC[n+]1ccc(SCC2=C(C(=O)[O-])N3C(=O)C(NC(=O)/C(=N\OC)c4csc(N)n4)[C@H]3SC2)c2cc(F)c(N3CCNCC3C)cc21 (some centres unmarked) [Compound I-12, 7-[(Z)-2-(2-aminothiazol-4-yl)-2-(methoxyimino)acetamido]-3-[1-ethyl-6-fluoro-7-(2-methylpiperazinyl)quinolinium-4-yl]thiomethyl-3-cephem-4-carboxylate]
Antibacterial Activity (MIC) [1]: 0.1 mg/L | Antibacterial Activity (MIC) [2]: 0.1 mg/L | Antibacterial Activity (MIC) [3]: 1.56 mg/L | Antibacterial Activity (MIC) [4]: 0.39 mg/L | Antibacterial Activity (MIC) [5]: 0.025 mg/L | Antibacterial Activity (MIC) [6]: 0.2 mg/L | Antibacterial Activity (MIC) [7]: 1.56 mg/L

C=CC[n+]1ccc(SCC2=C(C(=O)[O-])N3C(=O)C(NC(=O)/C(=N\OC)c4csc(N)n4)[C@H]3SC2)c2cc(F)c(N3CCNCC3)cc21 (some centres unmarked) [Compound I-13, 7-[(Z)-2-(2-aminothiazol-4-yl)-2-(methoxyimino)acetamido]-3-(1-allyl-6-fluoro-7-piperazinylquinolinium-4-yl)thiomethyl-3-cephem-4-carboxylate]
MIC [1]: 1.56 mg/L (≈ 2.23 µM) | MIC [2]: 0.39 mg/L (≈ 0.558 µM) | MIC [3]: 3.13 mg/L (≈ 4.48 µM) | MIC [4]: 0.78 mg/L (≈ 1.12 µM) | MIC [5]: 0.78 mg/L (≈ 1.12 µM) | MIC [6]: 1.56 mg/L (≈ 2.23 µM) | MIC [7]: 1.56 mg/L (≈ 2.23 µM)

C=CC[n+]1ccc(SCC2=C(C(=O)[O-])N3C(=O)C(NC(=O)/C(=N\OC)c4csc(N)n4)C3SC2)c2cc(F)c(N3CCN(C)CC3)cc21 (centres unmarked) [Compound I-14, 7-[(Z)-2-(2-aminothiazol-4-yl)-2-(methoxyimino)acetamido]-3-[1-allyl-6-fluoro-7-(N-methylpiperazinyl)quinolinium-4-yl]thiomethyl-3-cephem-4-carboxylate]
MIC [1]: 0.78 mg/L (≈ 1.09 µM) | MIC [2]: 0.1 mg/L (≈ 0.14 µM) | MIC [3]: 3.13 mg/L (≈ 4.39 µM) | MIC [4]: 1.56 mg/L (≈ 2.19 µM) | MIC [5]: 0.2 mg/L (≈ 0.281 µM) | MIC [6]: 0.39 mg/L (≈ 0.547 µM) | MIC [7]: 3.13 mg/L (≈ 4.39 µM)

C=CC[n+]1ccc(SCC2=C(C(=O)[O-])N3C(=O)C(NC(=O)/C(=N\OC)c4csc(N)n4)C3SC2)c2cc(F)c(N3CCN(CC)CC3)cc21 (centres unmarked) [Compound I-15, 7-[(Z)-2(2-aminothiazol-4-yl)-2-(methoxyimino)acetamido]-3-[1-allyl-6-fluoro-7-(1-ethylpiperazinyl)quinolinium-4-yl]thiomethyl-3-cephem-4-carboxylate]
MIC [1]: 0.2 mg/L (≈ 0.275 µM) | MIC [2]: 0.1 mg/L (≈ 0.138 µM) | MIC [3]: 1.56 mg/L (≈ 2.15 µM) | MIC [4]: 0.39 mg/L (≈ 0.537 µM) | MIC [5]: 0.39 mg/L (≈ 0.537 µM) | MIC [6]: 0.78 mg/L (≈ 1.07 µM) | MIC [7]: 1.56 mg/L (≈ 2.15 µM)

C=CC[n+]1ccc(SCC2=C(C(=O)[O-])N3C(=O)C(NC(=O)/C(=N\OC)c4csc(N)n4)C3SC2)c2cc(F)c(N3CCNCC3C)cc21 (centres unmarked) [Compound I-16, 7-[(Z)-2-(2-aminothiazol-4-yl)-2-(methoxyimino)acetamido]-3-[1-allyl-6-fluoro-7-(2-methylpiperazinyl)quinolinium-4-yl]thiomethyl 3-cephem-4-carboxylate]
Antibacterial Activity (MIC) [1]: 0.2 mg/L | Antibacterial Activity (MIC) [2]: 0.2 mg/L | Antibacterial Activity (MIC) [3]: 1.56 mg/L | Antibacterial Activity (MIC) [4]: 0.39 mg/L | Antibacterial Activity (MIC) [5]: 0.78 mg/L | Antibacterial Activity (MIC) [6]: 0.39 mg/L | Antibacterial Activity (MIC) [7]: 1.56 mg/L

CO/N=C(\C(=O)NC1C(=O)N2C(C(=O)[O-])=C(CSc3cc[n+](C4CC4)c4cc(-n5cnc(C)c5)c(F)cc34)CSC12)c1csc(N)n1 (centres unmarked) [Compound I-20, 7-[(Z)-2-(2-aminothiazol-4-yl)-2-(methoxyimino)acetamido]-3-[1-cyclopropyl-6-fluoro-7-(4-methylimidazolyl)quinolinium-4-yl]thiomethyl-3-cephem-4-carboxylate]
Antibacterial Activity (MIC) [1]: 0.78 mg/L | Antibacterial Activity (MIC) [2]: 0.2 mg/L | Antibacterial Activity (MIC) [3]: 1.56 mg/L | Antibacterial Activity (MIC) [4]: 0.1 mg/L | Antibacterial Activity (MIC) [5]: 0.2 mg/L | Antibacterial Activity (MIC) [6]: 0.39 mg/L | Antibacterial Activity (MIC) [7]: 1.56 mg/L

C=CCO/N=C(\C(=O)NC1C(=O)N2C(C(=O)[O-])=C(CSc3cc[n+](C)c4cc(N5CCNCC5)c(F)cc34)CS[C@H]12)c1csc(N)n1 (some centres unmarked) [Compound I-21, 7-[(Z)-2-(2-aminothiazol-4-yl)-2-(allyloxyimino)acetamido]-3-(1-methyl-6-fluoro-7-piperazinylquinolinium-4-yl)thiomethyl-3-cephem-4-carboxylate]
MIC [1]: 0.2 mg/L (≈ 0.286 µM) | MIC [2]: 0.39 mg/L (≈ 0.558 µM) | MIC [3]: 3.13 mg/L (≈ 4.48 µM) | MIC [4]: 0.1 mg/L (≈ 0.143 µM) | MIC [5]: 0.025 mg/L (≈ 0.0358 µM) | MIC [6]: 0.1 mg/L (≈ 0.143 µM) | MIC [7]: 6.25 mg/L (≈ 8.94 µM)

C=CCO/N=C(\C(=O)NC1C(=O)N2C(C(=O)[O-])=C(CSc3cc[n+](C)c4cc(N5CCN(C)CC5)c(F)cc34)CSC12)c1csc(N)n1 (centres unmarked) [Compound I-22, 7-[(Z)-2-(2-aminothiazol-4-yl)-2-(allyloxyimino)acetamido]-3-[1-methyl-6-fluoro-7-(N-methylpiperazinyl)quinolinium-4-yl]thiomethyl-3-cephem-4-carboxylate]
MIC [1]: 0.2 mg/L (≈ 0.281 µM) | MIC [2]: 0.39 mg/L (≈ 0.547 µM) | MIC [3]: 6.25 mg/L (≈ 8.77 µM) | MIC [4]: 0.39 mg/L (≈ 0.547 µM) | MIC [5]: 0.013 mg/L (≈ 0.0182 µM) | MIC [6]: 0.1 mg/L (≈ 0.14 µM) | MIC [7]: 3.13 mg/L (≈ 4.39 µM)
